Values of other authors, collected in patent publication US20240148709A1, “METHODS OF TREATING EYE PAIN AND EYE DISORDERS” (Aisa Pharma, Inc., priority 2022, published 2024).

Details: oral dosing; cited from earlier work

## CCOC(=O)C1=C(COCCN)NC(C)=C(C(=O)OC)C1c1ccccc1Cl (stereo not shown) [amlodipine]
  time to achieve maximal plasma concentration (Tmax): 10 h
